≈ marks a conversion by molar mass, not a printed value. Read-outs that look alike come from different tables or passages of the source. One block for each compound: values may come before it.
Key:
Staphylococcus aureus [1] = assay: In vitro minimum inhibitory concentration (MIC) vs. Staph. aureus; assay type: cell-based; conditions: for MIC: Staphylococcus aureus
Method: The antibacterial penam compounds of the instant invention show activity against a wide variety of gram-positive and gram-negative bacteria. […] The broth is inoculated with the bacterial culture, and with the test antibiotic, and then it is incubated overnight. On the next day, the test is read visually. The minimum inhibitory concentration (MIC) is the lowest concentration of antibiotic which prevents turbidity, i.e., which prevents growth of the microorganism. In vitro activities of several of the penam compounds of the invention are presented later in this specification.
In Table II, the minimum inhibitory concentrations (MIC's) of compounds of formula I, wherein R^2 is hydrogen, against a strain of Streptococcus pyogenes, are reported; and in Table III, minimum inhibitory concentrations of compounds of formula I, wherein R^2 is hydrogen, against a strain of Staphylococcus aureus, are presented. Because of the tautomeric nature of such tetrazole derivatives, referred to hereinbefore,each of the preparations tested also contains some of the corresponding compound of formula II, wherein R^3 is hydrogen.

Staphylococcus aureus [2] = assay: In vivo protection of mice against systemic infection by Staphylococcus aureus; conditions: multiple dosing
Method: (§1) The antibacterial penam compounds of the instant invention are also active in vivo. In determining such activity, the test antibiotic is administered to infected mice, using a multiple dosing regimen. The severity of the infection varies from about one to about ten times that needed to kill 100% of the mice under the conditions of the test. At the end of the test, the activity of a compound is assessed by counting the number of survivors among the treated animals. Both the subcutaneous (SC) and the oral (PO) dosage routes are used. Results are given in Table I for two of the compounds of the invention. The ability of the compounds to protect mice against systemic infections caused by a lethal intraperitoneal inoculum of Staphylococcus aureus or of Escherichia coli is presented.

Escherichia coli = assay: In vivo protection of mice against systemic infection by Escherichia coli; conditions: multiple dosing
Method: as §1

Streptococcus pyogenes = assay: In vitro minimum inhibitory concentration (MIC) vs. Strep. pyogenes; assay type: cell-based; conditions: Streptococcus pyogenes, read-out: MIC vs. Strep. pyogenes
Method in brief: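 Broth inoculated with bacteria and test antibiotic, incubated overnight and read visually; MIC is the lowest concentration preventing turbidity. Test preparations also contain some of the corresponding tetrazole tautomer.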

[3] = Table III, two-fold serial dilution, Brain-Heart Infusion broth, overnight, read-out: MIC vs. Staph. aureus
[4] = Table IV, values marked *, read-out: MIC against Staph. aureus
[5] = Table II, two-fold serial dilution, Brain-Heart Infusion broth, overnight

MIC (Staphylococcus aureus [1]; [3]): 0.78 µg/mL (≈ 1.48 µM)
SMILES: CC1(C)S[C@@H]2[C@H](NC(=O)[C@H](NC(=S)NC(=O)c3ccco3)c3ccccc3)C(=O)N2[C@H]1c1nn[nH]n1

MIC (Staphylococcus aureus [1]; [3]): 6.25 µg/mL (≈ 11 µM)
SMILES: Cc1ccc(S(=O)(=O)NC(=O)N[C@@H](C(=O)N[C@@H]2C(=O)N3[C@@H]2SC(C)(C)[C@@H]3c2nn[nH]n2)c2ccccc2)cc1

MIC (Staphylococcus aureus [1]; [3]): 50 µg/mL (≈ 113 µM)
SMILES: CC(C)C(NC(=N)c1ccncc1)C(=O)N[C@@H]1C(=O)N2[C@@H]1SC(C)(C)[C@@H]2c1nnn[nH]1 (stereo partly shown)

MIC (Staphylococcus aureus [1]; [3]): 50 µg/mL (≈ 95.7 µM)
SMILES: CC1(C)S[C@@H]2[C@H](NC(=O)[C@H](NC(=O)CNC(=N)c3ccc[nH]3)c3ccccc3)C(=O)N2[C@H]1c1nnn[nH]1

MIC (Staphylococcus aureus [1]; [3]): 1.56 µg/mL (≈ 2.25 µM)
SMILES: CC1(C)S[C@@H]2[C@H](NC(=O)[C@H](NC(=O)CNC(=O)c3cc(Br)cc(Br)c3)c3ccccc3)C(=O)N2[C@H]1c1nnn[nH]1

MIC (Staphylococcus aureus [1]; [3]): 3.12 µg/mL (≈ 6.45 µM)
SMILES: CC1(C)S[C@@H]2[C@H](NC(=O)[C@H](NC(=O)CC3=NCCN3)c3ccccc3)C(=O)N2[C@H]1c1nnn[nH]1

MIC (Staphylococcus aureus [1]; [3]): 1.56 µg/mL (≈ 3.31 µM)
SMILES: CC(=N)NCC(=O)N[C@@H](C(=O)N[C@@H]1C(=O)N2[C@@H]1SC(C)(C)[C@@H]2c1nnn[nH]1)c1ccccc1

MIC (Staphylococcus aureus [1]; [3]): 0.39 µg/mL (≈ 0.739 µM)
SMILES: CC1(C)S[C@@H]2[C@H](NC(=O)[C@H](NS(=O)(=O)Cc3ccccc3)c3ccccc3)C(=O)N2[C@H]1c1nn[nH]n1

MIC (Staphylococcus aureus [1]; [3]): 1.56 µg/mL (≈ 2.85 µM)
SMILES: CC1(C)S[C@@H]2[C@H](NC(=O)[C@H](NS(=O)(=O)c3ccc(Cl)cc3)c3ccccc3)C(=O)N2[C@H]1c1nn[nH]n1

MIC (Staphylococcus aureus [1]; [3]): 1.56 µg/mL (≈ 2.79 µM)
SMILES: CC1(C)S[C@@H]2[C@H](NC(=O)[C@H](NS(=O)(=O)c3ccc([N+](=O)[O-])cc3)c3ccccc3)C(=O)N2[C@H]1c1nn[nH]n1

MIC (Staphylococcus aureus [1]; [3]): 200 µg/mL (≈ 673 µM)
SMILES: CC1(C)S[C@@H]2[C@H](NC(=O)CN)C(=O)N2[C@H]1c1nnn[nH]1 [2-aminoacetyl]

MIC (Staphylococcus aureus [1]; [4]): 0.78 µg/mL (≈ 1.82 µM)
SMILES: CC1(C)S[C@@H]2[C@H](N3C(=O)[C@@H](c4ccc(O)cc4)NC3(C)C)C(=O)N2[C@H]1c1nnn[nH]1 [6-(2,2-Dimethyl-5-oxo-4-[p-hydroxyphenyl]-1-imidazolidinyl)-2,2-dimethyl-3-(5-tetrazolyl)penam]

MIC (Staphylococcus aureus [1]; [4]): 1.56 µg/mL (≈ 3.77 µM)
SMILES: CC1(C)S[C@@H]2[C@H](N3C(=O)[C@@H](c4ccccc4)NC3(C)C)C(=O)N2[C@H]1c1nnn[nH]1 [6-(2,2-Dimethyl-5-oxo-4-phenyl-1-imidazolidinyl)-2,2-dimethyl-3-(5-tetrazolyl)penam]

MIC (Staphylococcus aureus [1]; [3]): 100 µg/mL (≈ 191 µM)
SMILES: CC1(C)S[C@@H]2[C@H](NC(=O)C(NC(=O)CSc3ccncc3)c3ccccc3)C(=O)N2[C@H]1c1nn[nH]n1 (stereo partly shown) [6-(2-[2-(4-Pyridylthio)acetamido]-2-phenylacetamido)-2,2-dimethyl-3-(5-tetrazolyl)penam]

MIC vs. Staph. aureus (Staphylococcus aureus [1]; Table III, two-fold serial dilution, Brain-Heart Infusion broth, overnight): 6.25 µg/mL (≈ 12.9 µM)
SMILES: CN(C)C=NCC(=O)N[C@@H](C(=O)NC1C(=O)N2C1SC(C)(C)C2c1nnn[nH]1)c1ccccc1 (stereo partly drawn) [6-(D-2-[2-(dimethylaminoethyleneamino)acetamido]-2-phenylacetamido-2,2-dimethyl-3-(5-tetrazolyl)penam]

MIC (Staphylococcus aureus [1]; [3]): 12.5 µg/mL (≈ 27.3 µM)
SMILES: CC1(C)S[C@@H]2[C@H](NC(=O)[C@H](NC(=O)CC(=N)N)c3ccccc3)C(=O)N2[C@H]1c1nn[nH]n1 [D-2-(2-[guanyl]acetamido)-2-phenylacetyl, 6-(D-2-[2-Guanylacetamido]-2-phenylacetamido)-2,2-dimethyl-3-(5-tetrazolyl)penam]

MIC (Staphylococcus aureus [1]; [3]): 0.78 µg/mL (≈ 1.88 µM)
SMILES: CC(=O)N[C@@H](C(=O)N[C@@H]1C(=O)N2[C@@H]1SC(C)(C)[C@@H]2c1nnn[nH]1)c1ccccc1 [D-2-(acetamido)-2-phenylacetyl]

MIC (Staphylococcus aureus [1]; [3]): 1.56 µg/mL (≈ 3.45 µM)
SMILES: CC1(C)S[C@@H]2[C@H](NC(=O)[C@H](NS(C)(=O)=O)c3ccccc3)C(=O)N2[C@H]1c1nn[nH]n1 [D-2-(methanesulfonamido)-2-phenylacetyl, 6-(D-2-Methanesulfonamido-2-phenylacetamido)-2,2-dimethyl-3-(5-tetrazolyl)penam]

MIC (Staphylococcus aureus [1]; [3]): 0.78 µg/mL (≈ 1.63 µM)
SMILES: CCCS(=O)(=O)N[C@@H](C(=O)N[C@@H]1C(=O)N2[C@@H]1SC(C)(C)[C@@H]2c1nn[nH]n1)c1ccccc1 [D-2-(propanesulfonamido)-2-phenylacetyl]

MIC (Staphylococcus aureus [1]; [3]): < 0.1 µg/mL
SMILES: CC1(C)S[C@@H]2[C@H](NC(=O)[C@H](N)c3ccsc3)C(=O)N2[C@H]1c1nnn[nH]1 [D-2-amino-2-(3-thienyl)acetyl, 6-(D-2-Amino-2-[3-thienyl]acetamido)-2,2-dimethyl-3-(5-tetrazolyl)penam]
Percentage Protection S. aureus (Staphylococcus aureus [2]; 6 mg./kg. SC): 50%
Percentage Protection S. aureus (Staphylococcus aureus [2]; 12 mg./kg. SC): 50%
Percentage Protection S. aureus (Staphylococcus aureus [2]; 25 mg./kg. SC): 60%
Percentage Protection S. aureus (Staphylococcus aureus [2]; 50 mg./kg. SC): 40%
Percentage Protection E. coli (Escherichia coli; 25 mg./kg. SC): 20%
Percentage Protection E. coli (Escherichia coli; 50 mg./kg. SC): 20%
Percentage Protection E. coli (Escherichia coli; 200 mg./kg. PO): 0%

MIC (Streptococcus pyogenes; [5]): < 0.1 µg/mL
SMILES: CC1(C)S[C@@H]2[C@H](NC(=O)[C@H](N)c3ccc(O)cc3)C(=O)N2[C@H]1c1nnn[nH]1 [D-2-amino-2-(p-hydroxyphenyl)acetyl, 6-(D-2-Amino-2-[4-hydroxyphenyl]acetamido)-2,2-dimethyl-3-(5-tetrazolyl)penam]
Percentage Protection S. aureus (Staphylococcus aureus [2]; 6 mg./kg. SC): 50%
Percentage Protection S. aureus (Staphylococcus aureus [2]; 12 mg./kg. SC): 50%
Percentage Protection S. aureus (Staphylococcus aureus [2]; 25 mg./kg. SC): 70%
Percentage Protection S. aureus (Staphylococcus aureus [2]; 50 mg./kg. SC): 80%
Percentage Protection E. coli (Escherichia coli; 25 mg./kg. SC): 80%
Percentage Protection E. coli (Escherichia coli; 50 mg./kg. SC): 100%
Percentage Protection E. coli (Escherichia coli; 200 mg./kg. PO): 100%

MIC (Staphylococcus aureus [1]; [3]): < 0.1 µg/mL
SMILES: COc1ccc([C@@H](N)C(=O)N[C@@H]2C(=O)N3[C@@H]2SC(C)(C)[C@@H]3c2nnn[nH]2)cc1 [D-2-amino-2-(p-methoxyphenyl)acetyl]

MIC (Staphylococcus aureus [1]; [3]): 6.25 µg/mL (≈ 14.7 µM)
SMILES: CC1(C)S[C@@H]2[C@H](NC(=O)[C@H](N)Cc3c[nH]c4ccccc34)C(=O)N2[C@H]1c1nnn[nH]1 [D-2-amino-3-(3-indolyl)propionyl]

MIC (Staphylococcus aureus [1]; [3]): < 0.1 µg/mL
SMILES: CC1(C)S[C@@H]2[C@H](NC(=O)[C@H](O)c3ccccc3)C(=O)N2[C@H]1c1nnn[nH]1 [D-2-hydroxy-2-phenylacetyl, 6-(D-2-Hydroxy-2-phenylacetamido)-2,2-dimethyl-3-(5-tetrazolyl)penam]

MIC (Streptococcus pyogenes; [5]): 12.5 µg/mL (≈ 27.6 µM)
SMILES: CC1(C)S[C@@H]2[C@H](NC(=O)[C@H](NS(=O)(=O)O)c3ccccc3)C(=O)N2[C@H]1c1nnn[nH]1 [D-2-sulfoamino-2-phenylacetyl, 6-(D-2-sulfoamino-2-phenylacetamido)-2,2-dimethyl-3-(5-tetrazolyl)penam]

SMILES: CC1(C)S[C@@H]2[C@H](NC(=O)[C@H](NC(N)=O)c3ccccc3)C(=O)N2[C@H]1c1nn[nH]n1 [D-2-ureido-2-phenylacetyl, 6-(D-2-Ureido-2-phenylacetamido)-2,2-dimethyl-3-(5-tetrazolyl)-penam]
MIC (Streptococcus pyogenes): 0.1 µg/mL (≈ 0.24 µM)

MIC (Streptococcus pyogenes; [5]): < 0.1 µg/mL
SMILES: CC1(C)S[C@@H]2[C@H](NC(=O)[C@@H](N)c3ccc(O)cc3)C(=O)N2[C@H]1c1nnn[nH]1 [L-2-amino-2-(p-hydroxyphenyl)acetyl]

SMILES: CC1(C)S[C@@H]2[C@H](NC(=O)[C@@H](N)Cc3ccc(O)cc3)C(=O)N2[C@H]1c1nn[nH]n1 [L-2-amino-3-(p-hydroxyphenyl)propionyl, 6-(L-2-amino-3-[4-hydroxyphenyl]propionamido)-2,2-dimethyl-3-(5-tetrazoyl)penam]
MIC (Streptococcus pyogenes; [5]): 0.2 µg/mL (≈ 0.496 µM)

MIC (Staphylococcus aureus [1]; [3]): < 0.1 µg/mL
SMILES: CC1(C)S[C@@H]2[C@H](NC(=O)[C@@H](O)c3ccccc3)C(=O)N2[C@H]1c1nnn[nH]1 [L-2-hydroxy-2-phenylacetyl, 6-(L-2-Hydroxy-2-phenylacetamido)-2,2-dimethyl-3-(5-tetrazolyl)penam]

MIC (Streptococcus pyogenes; [5]): 1.56 µg/mL (≈ 4.13 µM)
SMILES: CC1(C)S[C@@H]2[C@H](NC(=O)NC(=O)c3ccco3)C(=O)N2[C@H]1c1nn[nH]n1 [N-(2-furoyl)carbamoyl]

MIC (Streptococcus pyogenes; [5]): 1.56 µg/mL (≈ 3.57 µM)
SMILES: Cc1ccc(S(=O)(=O)NC(=O)N[C@@H]2C(=O)N3[C@@H]2SC(C)(C)[C@@H]3c2nn[nH]n2)cc1 [N-(p-toluenesulfonyl)carbomoyl]

MIC (Streptococcus pyogenes; [5]): 1.56 µg/mL (≈ 4.79 µM)
SMILES: CC(=O)NC(=O)N[C@@H]1C(=O)N2[C@@H]1SC(C)(C)[C@@H]2c1nn[nH]n1 [N-acetylcarbomoyl]

SMILES: CC1(C)S[C@@H]2[C@H](NC(=O)Oc3ccccc3)C(=O)N2[C@H]1c1nnn[nH]1 [phenoxycarbonyl]
MIC (Streptococcus pyogenes): < 0.1 µg/mL

SMILES: CC1(C)S[C@@H]2[C@H](NC(=O)C(=O)c3ccccc3)C(=O)N2[C@H]1c1nnn[nH]1 [phenylglyoxyloyl]
MIC (Streptococcus pyogenes): < 0.1 µg/mL

SMILES: CC1(C)S[C@@H]2[C@H](NC(=O)C(=O)Cc3ccccc3)C(=O)N2[C@H]1c1nnn[nH]1 [phenylpyruvoyl, 6-Phenylpyruvamido-2,2-dimethyl-3-(5-tetrazolyl)penam]
MIC (Streptococcus pyogenes): < 0.1 µg/mL
